PubChem BioAssay (NCI)
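Exposure lasted 48 hours, with cells grown in 96-well plates and compounds tested at five concentrations. TGI marks complete inhibition of growth.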

Columns and labels:
Assay in all cases: inhibition of tumour cell growth, NCI panel, 48 h
UACC-62 melanoma = system: UACC-62 melanoma
UO-31 renal = system: UO-31 renal
M19-MEL melanoma = system: M19-MEL melanoma
KM12 colon = system: KM12 colon
DLD-1 colon = system: DLD-1 colon
RXF-631 renal = system: RXF-631 renal
MOLT-4 leukemia = system: MOLT-4 leukemia
CCRF-CEM leukemia = system: CCRF-CEM leukemia
HOP-62 NSCLC = system: HOP-62 NSCLC
U251 CNS = system: U251 CNS
DMS 114 small cell lung = system: DMS 114 small cell lung
K-562 leukemia = system: K-562 leukemia
SK-MEL-2 melanoma = system: SK-MEL-2 melanoma
SNB-78 CNS = system: SNB-78 CNS
SW-620 colon = system: SW-620 colon
NCI-H460 lung = system: NCI-H460 lung
MALME-3M melanoma = system: MALME-3M melanoma
HOP-18 NSCLC = system: HOP-18 NSCLC
OVCAR-4 ovarian = system: OVCAR-4 ovarian
HOP-92 NSCLC = system: HOP-92 NSCLC
SF-295 CNS = system: SF-295 CNS
HL-60(TB) leukemia = system: HL-60(TB) leukemia
NCI-H226 lung = system: NCI-H226 lung
COLO 205 colon = system: COLO 205 colon
OVCAR-3 ovarian = system: OVCAR-3 ovarian
HCT-116 colon = system: HCT-116 colon
HT29 colon = system: HT29 colon
OVCAR-5 ovarian = system: OVCAR-5 ovarian
TK-10 renal = system: TK-10 renal
EKVX NSCLC = system: EKVX NSCLC
SF-539 CNS = system: SF-539 CNS
UACC-257 melanoma = system: UACC-257 melanoma
SK-OV-3 ovarian = system: SK-OV-3 ovarian
SN12C renal = system: SN12C renal
LXFL 529 NSCLC = system: LXFL 529 NSCLC
M14 melanoma = system: M14 melanoma
RXF 393 renal = system: RXF 393 renal
ACHN renal = system: ACHN renal
NCI-H23 lung = system: NCI-H23 lung
NCI-H522 lung = system: NCI-H522 lung
CAKI-1 renal = system: CAKI-1 renal
OVCAR-8 ovarian = system: OVCAR-8 ovarian
SK-MEL-5 melanoma = system: SK-MEL-5 melanoma
HCC-2998 colon = system: HCC-2998 colon
SF-268 CNS = system: SF-268 CNS
SNB-19 CNS = system: SNB-19 CNS
XF 498 CNS = system: XF 498 CNS
SNB-75 CNS = system: SNB-75 CNS
SR leukemia = system: SR leukemia
DMS 273 small cell lung = system: DMS 273 small cell lung
KM20L2 colon = system: KM20L2 colon
RPMI-8226 leukemia = system: RPMI-8226 leukemia
IGROV1 ovarian = system: IGROV1 ovarian
A549 NSCLC = system: A549 NSCLC
A498 renal = system: A498 renal
HCT-15 colon = system: HCT-15 colon
786-0 renal = system: 786-0 renal
LOX IMVI melanoma = system: LOX IMVI melanoma
SK-MEL-28 melanoma = system: SK-MEL-28 melanoma

Measured: TGI

Cn1cnc2[nH]c(=O)[nH]c(=S)c21
not listed: LOX IMVI melanoma | SK-MEL-28 melanoma
> 100 µM: all other assays above

COC(=O)CCC(NC(=S)N/N=C(\C)c1ccco1)C(=O)OC (stereo not given)
not listed: MOLT-4 leukemia | HOP-92 NSCLC | CAKI-1 renal | SR leukemia | RPMI-8226 leukemia
> 100 µM: all other assays above

COc1ccc(C(=O)Cc2ccc(Cl)cc2)cc1OC
86.9 µM: SNB-75 CNS
not listed: KM12 colon | HOP-92 NSCLC | COLO 205 colon | 786-0 renal | SK-MEL-28 melanoma
> 100 µM: all other assays above
